ChEMBL document CHEMBL5241112, “Insights into the recent progress in the medicinal chemistry of pyranopyrimidine analogs” (RSC Med Chem, 2022)
≈ marks a conversion by molar mass, not a printed value.

Columns and labels:
NUGC = assay: Anticancer activity against human NUGC cells assessed as cell growth inhibition incubated for 24 hrs; type: functional, cell-based
DLD-1 = assay: Anticancer activity against human DLD-1 cells assessed as cell growth inhibition incubated for 24 hrs; type: functional, cell-based; conditions: DLD-1, 24 h
Aspergillus fumigatus [1] = assay: Antifungal activity against Aspergillus fumigatus MTCC 227 assessed as fungal growth inhibition by broth microdilution method; type: functional
[2] = system: Mycobacterium tuberculosis; assay: Antitubercular activity against Mycobacterium tuberculosis H37Rv assessed as bacterial growth inhibition at 100 ug/ml; type: functional
Clostridium tetani = assay: Antibacterial activity against Clostridium tetani MTCC 449 assessed as bacterial growth inhibition by broth microdilution method; type: functional
Plasmodium falciparum = assay: microbe, parasite or virus in culture
[3] = system: Mycobacterium tuberculosis; assay: Antitubercular activity against Mycobacterium tuberculosis H37Rv assessed as bacterial growth inhibition at 250 ug/ml; type: functional
Candida albicans [4] = assay: Antifungal activity against Candida albicans MTCC 3008 assessed as fungal growth inhibition by broth microdilution method; type: functional
Staphylococcus aureus [5] = assay: Antibacterial activity against Staphylococcus aureus MLS-16 MTCC 2940 assessed as bacterial growth inhibition; type: functional
Raoultella planticola = assay: Antibacterial activity against Raoultella planticola MTCC 530 assessed as bacterial growth inhibition; type: functional; conditions: Klebsiella planticola
Escherichia coli [6] = assay: Antibacterial activity against Escherichia coli MTCC 739 assessed as bacterial growth inhibition; type: functional
Pseudomonas aeruginosa [7] = assay: Antibacterial activity against Pseudomonas aeruginosa MTCC 2453 assessed as bacterial growth inhibition; type: functional
Micrococcus luteus = assay: Antibacterial activity against Micrococcus luteus MTCC 2470 assessed as bacterial growth inhibition; type: functional
Bacillus subtilis [8] = assay: Antibacterial activity against Bacillus subtilis MTCC 121 assessed as bacterial growth inhibition; type: functional
Escherichia coli [9] = assay: Antimicrobial activity against Escherichia coli ATCC 14169 assessed as diameter of inhibition zone at 20 mg/ml incubated for 24 hrs by disk diffusion method; type: functional; conditions: read-out: DIZ
Pseudomonas aeruginosa [10] = assay: Antibacterial activity against Pseudomonas aeruginosa assessed as inhibition of bacterial growth; type: functional
Pseudomonas aeruginosa [11] = assay: Antimicrobial activity against Pseudomonas aeruginosa ATCC 27853 assessed as diameter of inhibition zone at 20 mg/ml incubated for 24 hrs by disk diffusion method; type: functional; conditions: read-out: DIZ
Escherichia coli [12] = assay: Antibacterial activity against Escherichia coli assessed as diameter of inhibition zone; type: functional
HepG2 = assay: Anticancer activity against human HepG2 cells assessed as reduction in cell viability; type: functional, cell-based
Bacillus subtilis [13] = assay: Antibacterial activity against Bacillus subtilis assessed as diameter of inhibition zone; type: functional
Salmonella typhimurium [14] = assay: Antibacterial activity against Salmonella typhimurium assessed as diameter of inhibition zone; type: functional, Salmonella enterica subsp. enterica serovar Typhimurium
Staphylococcus aureus [15] = assay: Antimicrobial activity against Staphylococcus aureus NCTC7447 assessed as diameter of inhibition zone at 20 mg/ml incubated for 24 hrs by disk diffusion method; type: functional; conditions: read-out: DIZ
Escherichia coli [16] = assay: Antibacterial activity against Escherichia coli assessed as inhibition of bacterial growth; type: functional
Urease = Urease (Canavalia ensiformis, UniProt P07374); assay: Inhibition of jack bean urease by phenol red method
Bacillus cereus = assay: Antimicrobial activity against Bacillus cereus ATCC14579 assessed as diameter of inhibition zone at 20 mg/ml incubated for 24 hrs by disk diffusion method; type: functional; conditions: read-out: DIZ
Aspergillus niger = assay: Antifungal activity against Aspergillus niger assessed as inhibition of fungal growth; type: functional
HCT-116 [17] = assay: cells; conditions: Homo sapiens
Candida albicans [18] = assay: Antifungal activity against Candida albicans assessed as inhibition of fungal growth; type: functional
Aspergillus flavus = assay: Antifungal activity against Aspergillus flavus assessed as inhibition of fungal growth; type: functional
Staphylococcus aureus [19] = assay: Antibacterial activity against Staphylococcus aureus assessed as diameter of inhibition zone; type: functional
MCF7 = assay: Anticancer activity against human MCF7 cells assessed as reduction in cell viability; type: functional, cell-based
Klebsiella pneumoniae [20] = assay: Antimicrobial activity against Klebsiella pneumoniae UC57 assessed as diameter of inhibition zone at 20 mg/ml incubated for 24 hrs by disk diffusion method; type: functional; conditions: read-out: DIZ
Staphylococcus aureus [21] = assay: Antibacterial activity against Staphylococcus aureus assessed as inhibition of bacterial growth; type: functional
DNA = assay: Binding affinity to DNA (unknown origin) assessed as DNA intercalation; type: nucleic-acid assay
DNA topoisomerase II = DNA topoisomerase II (Homo sapiens, UniProt P11388+Q02880); assay: Inhibition of DNA topoisomerase 2 (unknown origin); type: protein assay
Staphylococcus aureus [22] = assay: Antibacterial activity against Staphylococcus aureus ATCC6538-P assessed as diameter of inhibition zone at 50 mg/ml incubated for 24 hrs by paper disk diffusion method; type: functional; conditions: read-out: DIZ
Escherichia coli [23] = assay: Antibacterial activity against Escherichia coli ATCC 25922 assessed as diameter of inhibition zone at 50 mg/ml incubated for 24 hrs by paper disk diffusion method; type: functional; conditions: read-out: DIZ
Aspergillus fumigatus [24] = assay: microbe, parasite or virus in culture; type: functional; conditions: ATCC204305, dose 50 mg/ml, time 24 hrs, read-out: DIZ
[25] = system: Human immunodeficiency virus 2; assay: Antiviral activity against HIV2 ROD infected in human MT4 cells assessed as reduction in virus-induced cytopathic effect by MTT assay; type: functional, organism-based; conditions: Human immunodeficiency virus 2, ROD
[26] = system: Human immunodeficiency virus 1; assay: Antiviral activity against HIV1 IIIB infected in human MT4 cells assessed as reduction in virus-induced cytopathic effect by MTT assay; type: functional, organism-based; conditions: Human immunodeficiency virus 1, IIIB
Salmonella typhimurium [27] = assay: Antimicrobial activity against Salmonella typhimurium ATCC 19430 assessed as diameter of inhibition zone at 20 mg/ml incubated for 24 hrs by disk diffusion method; type: functional, Salmonella enterica subsp. enterica serovar Typhimurium; conditions: Salmonella enterica, read-out: DIZ
Escherichia coli [28] = assay: Antimicrobial activity against Escherichia coli ATCC 25922 assessed as diameter of inhibition zone at 20 mg/ml incubated for 24 hrs by disk diffusion method; type: functional; conditions: read-out: DIZ
HCT-116 [29] = assay: Anticancer activity against human HCT-116 cells assessed as reduction in cell viability incubated for 96 hrs by MTT assay; type: functional, cell-based; conditions: HCT-116, 96 h
Klebsiella pneumoniae [30] = assay: Antimicrobial activity against Klebsiella pneumoniae ATCC 15380 assessed as diameter of inhibition zone at 20 mg/ml incubated for 24 hrs by disk diffusion method; type: functional; conditions: read-out: DIZ
Staphylococcus aureus [31] = assay: Antibacterial activity against Staphylococcus aureus MTCC 87 assessed as diameter of inhibition zone at 0.1 mg/ml incubated for 24 hrs by agar well diffusion method; type: functional; conditions: read-out: DIZ
Alpha-glucosidase = Alpha-glucosidase (Saccharomyces cerevisiae S288c, UniProt P53341+P38158+P07265); assay: Inhibition of Saccharomyces cerevisiae alpha-glucosidase preincubated for 5 mins followed by PNP-GLUC substrate addition and measured after 20 mins by spectroscopic analysis; type: protein assay
Albumin = Albumin (Bos taurus, UniProt P02769); assay: […] bovine serum albumin denaturation incubated for 23 mins by UV-Visible spectrophotometry
[32] = Inhibition of porcine pancreatic alpha-amylase preincubated for 10 mins followed by substrate starch addition and measured after 10 mins by colorimetric analysis; design: species or system Sus scrofa

Albumin, sequence (P02769 whole entry): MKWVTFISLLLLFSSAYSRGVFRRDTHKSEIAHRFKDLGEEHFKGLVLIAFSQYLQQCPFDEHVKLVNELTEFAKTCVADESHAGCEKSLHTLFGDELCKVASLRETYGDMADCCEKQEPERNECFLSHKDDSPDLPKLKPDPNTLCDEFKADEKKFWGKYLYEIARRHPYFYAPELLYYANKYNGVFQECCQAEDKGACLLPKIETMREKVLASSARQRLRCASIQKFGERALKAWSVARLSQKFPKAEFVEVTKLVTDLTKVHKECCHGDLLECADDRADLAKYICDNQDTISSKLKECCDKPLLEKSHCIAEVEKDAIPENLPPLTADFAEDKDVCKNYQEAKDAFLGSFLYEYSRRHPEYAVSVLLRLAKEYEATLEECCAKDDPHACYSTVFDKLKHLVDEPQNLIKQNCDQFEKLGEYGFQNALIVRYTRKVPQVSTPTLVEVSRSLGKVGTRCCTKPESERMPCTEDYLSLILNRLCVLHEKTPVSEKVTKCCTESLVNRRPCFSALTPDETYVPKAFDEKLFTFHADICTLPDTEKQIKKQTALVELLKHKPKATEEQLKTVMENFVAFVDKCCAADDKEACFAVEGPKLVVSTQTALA
Urease, sequence (P07374 whole entry, the tested form may be a part): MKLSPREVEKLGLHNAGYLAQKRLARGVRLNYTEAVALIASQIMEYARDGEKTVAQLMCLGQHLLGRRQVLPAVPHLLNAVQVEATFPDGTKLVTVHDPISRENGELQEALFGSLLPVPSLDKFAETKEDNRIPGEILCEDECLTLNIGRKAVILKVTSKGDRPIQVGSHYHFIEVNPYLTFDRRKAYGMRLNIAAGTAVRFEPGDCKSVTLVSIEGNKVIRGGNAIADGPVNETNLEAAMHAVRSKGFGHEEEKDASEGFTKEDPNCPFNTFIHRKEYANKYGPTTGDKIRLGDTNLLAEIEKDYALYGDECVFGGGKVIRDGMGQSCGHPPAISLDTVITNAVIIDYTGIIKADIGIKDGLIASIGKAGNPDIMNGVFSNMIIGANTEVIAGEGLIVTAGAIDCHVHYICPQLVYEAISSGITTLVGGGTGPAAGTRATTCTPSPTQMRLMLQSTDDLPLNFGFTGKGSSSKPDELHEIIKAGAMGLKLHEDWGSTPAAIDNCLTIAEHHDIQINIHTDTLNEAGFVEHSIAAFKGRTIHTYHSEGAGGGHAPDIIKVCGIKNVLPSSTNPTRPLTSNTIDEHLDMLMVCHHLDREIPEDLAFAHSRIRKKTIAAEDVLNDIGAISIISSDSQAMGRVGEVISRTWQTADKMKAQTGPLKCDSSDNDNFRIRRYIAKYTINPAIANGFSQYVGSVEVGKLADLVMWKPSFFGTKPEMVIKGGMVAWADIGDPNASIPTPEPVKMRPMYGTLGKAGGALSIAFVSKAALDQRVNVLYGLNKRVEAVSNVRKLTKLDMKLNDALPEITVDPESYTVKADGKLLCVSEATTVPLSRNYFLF

N#CC1=C(N)C2C(=NC(n3[nH]c(N)cc3=O)=NC2c2ccc(Cl)cc2)OC1=O (centres undefined)
IC50 (NUGC): 2.21 µM | IC50 (DLD-1): 2.13 µM

Cc1nn(-c2ccccc2)c(-n2ccnc2)c1C1C(C#N)=C(N)Oc2[nH]c(=S)[nH]c(=O)c21 (centres undefined)
MIC (Aspergillus fumigatus [1]): 200 µg/mL (≈ 450 µM) | inhibition at 100 µg/mL [2]: 30% | MIC (Clostridium tetani): 100 µg/mL (≈ 225 µM) | IC50 (Plasmodium falciparum): 0.97 µg/mL (≈ 2.18 µM) | inhibition at 250 µg/mL [3]: 37% | MIC (Candida albicans [4]): 500 µg/mL (≈ 1120 µM)

O=c1oc2ccccc2c2c1C(c1ccccc1)c1c(Nc3ccc([N+](=O)[O-])cc3)ncnc1O2 (centres undefined)
MIC (Staphylococcus aureus [5]): ≤ 125 µg/mL | MIC (Raoultella planticola): 31.2 µg/mL (≈ 67.2 µM) | MIC (Escherichia coli [6]): 31.2 µg/mL (≈ 67.2 µM) | MIC (Pseudomonas aeruginosa [7]): ≤ 125 µg/mL | MIC (Micrococcus luteus): 31.2 µg/mL (≈ 67.2 µM) | MIC (Bacillus subtilis [8]): ≤ 125 µg/mL

COc1ccc(C2C(C#N)=C(N)Oc3[nH]c(=O)[nH]c(=O)c32)cc1 (centres undefined)
zone of inhibition at 20000 µg/mL (Escherichia coli [9]): 8 mm | MIC (Pseudomonas aeruginosa [10]): 25 µg/mL (≈ 80.1 µM) | zone of inhibition at 20000 µg/mL (Pseudomonas aeruginosa [11]): 5 mm | diameter of the inhibition zone (DIZ) (Escherichia coli [12]): 10 mm | IC50 (HepG2): 2.09 µM | diameter of the inhibition zone (DIZ) (Bacillus subtilis [13]): 12 mm | diameter of the inhibition zone (DIZ) (Salmonella typhimurium [14]): 8 mm | zone of inhibition at 20000 µg/mL (Staphylococcus aureus [15]): 14 mm | MIC (Escherichia coli [16]): 25 µg/mL (≈ 80.1 µM) | IC50 (Urease): 62.9 µM | zone of inhibition at 20000 µg/mL (Bacillus cereus): 11 mm | MIC (Aspergillus niger): 162 µg/mL (≈ 520 µM) | IC50 (HCT-116 [17]): 2.61 µM | MIC (Candida albicans [18]): 125 µg/mL (≈ 400 µM) | MIC (Aspergillus flavus): 150 µg/mL (≈ 480 µM) | diameter of the inhibition zone (DIZ) (Staphylococcus aureus [19]): 10 mm | IC50 (MCF7): 2.43 µM | zone of inhibition at 20000 µg/mL (Klebsiella pneumoniae [20]): 14 mm

N#CC1=C(N)Oc2[nH]c(=O)[nH]c(=O)c2C1Cc1ccccc1 (centres undefined)
MIC (Pseudomonas aeruginosa [10]): 87.5 µg/mL (≈ 295 µM) | MIC (Escherichia coli [16]): 25 µg/mL (≈ 84.4 µM) | MIC (Aspergillus niger): 162 µg/mL (≈ 548 µM) | MIC (Candida albicans [18]): 125 µg/mL (≈ 422 µM) | MIC (Aspergillus flavus): 150 µg/mL (≈ 506 µM) | MIC (Staphylococcus aureus [21]): 25 µg/mL (≈ 84.4 µM)

COc1ccc(C2c3c([nH]c(=O)[nH]c3=O)Oc3ncn(C(=S)Nc4ccccc4)c(=N)c32)cc1 (centres undefined)
IC50 (HepG2): 2.09 µM | IC50 (DNA): 27.1 µM | IC50 (HCT-116 [17]): 2.61 µM | IC50 (DNA topoisomerase II): 0.791 µM | IC50 (MCF7): 2.43 µM

O=c1[nH]cnc2c1C(c1ccc(Cl)cc1)C=C(c1cc3ccccc3oc1=O)O2 (centres undefined)
zone of inhibition at 50000 µg/mL (Staphylococcus aureus [22]): 10 mm | zone of inhibition at 50000 µg/mL (Escherichia coli [23]): 10 mm | zone of inhibition at 50000 µg/mL (Aspergillus fumigatus [24]): 10 mm

Cc1cn([C@H]2C[C@H](N=[N+]=[N-])[C@@H](CO)O2)c(=O)[nH]c1=O [ZIDOVUDINE]
EC50 [25]: 0.00094 µg/mL (≈ 0.00352 µM) | EC50 [26]: 0.0022 µg/mL (≈ 0.00823 µM)

N#CC1=C(N)Oc2[nH]c(=O)[nH]c(=O)c2C1c1cccs1 (centres undefined)
zone of inhibition at 20000 µg/mL (Salmonella typhimurium [27]): 20 mm | zone of inhibition at 20000 µg/mL (Escherichia coli [28]): 14 mm | IC50 (HCT-116 [29]): 2.76 µM | MIC (Aspergillus niger): 162 µg/mL (≈ 564 µM) | MIC (Candida albicans [18]): 125 µg/mL (≈ 434 µM) | MIC (Aspergillus flavus): 150 µg/mL (≈ 520 µM) | zone of inhibition at 20000 µg/mL (Klebsiella pneumoniae [30]): 16 mm

O=C(C1=C(c2ccccc2O)Oc2[nH]c(=S)[nH]c(=O)c2C1c1ccc(Br)cc1)N1CCCCC1 (centres undefined)
zone of inhibition at 100 µg/mL (Staphylococcus aureus [31]): 9.1 mm | IC50 (Alpha-glucosidase): 6855 µM | IC50 (Albumin): 23.1 µM | IC50 [32]: 24.7 µM
